Test results: article PMC8053192, “Engineering of a borneol dehydrogenase from P. putida for the enzymatic resolution of camphor” (Applied Microbiology and Biotechnology, 2021)

System: T1, glucose dehydrogenase (GDH) from Pseudomonas sp.
T1 construct: commercial enzyme, Sigma-Aldrich (UK)
Test: steady-state kinetics, Michaelis-Menten fit
Format: biochemical
Conditions: pH 5.0, 30 °C; NAD+ as co-substrate; read-out: apparent Km

OC[C@H]1OC(O)[C@H](O)[C@@H](O)[C@@H]1O (stereo partly shown) [glucose]
Km: 3.6 ± 0.35 mM
